{"source": "patent US11154569B2", "about": "“Ruthenium μ-nitrido complexes and their use as calcium uptake inhibitors” (CORNELL UNIVERSITY, priority 2018, dated 2021)", "test_system": "HEK293 cells", "assay": "Whole cell uptake of ruthenium (GFAAS) in HEK293 cells", "assay_type": "cell-based, human", "conditions": "50 μM, 24 hours", "procedure": "HEK293 cells were grown to near confluence in 75 cm^2 dishes. […] The cells were then treated with culture media containing 50 μM of the complex and incubated at 37° C. for 24 hours. The cells were washed with 1 mL of PBS and harvested using 0.05% trypsin. The cells were pelleted by centrifugation, re-suspended in 1 mL of PBS, and pelleted again. The washing and pelleting step was repeated a total of three times, after which the supernatant was removed and the cells were suspended in 500 μL of lysis buffer containing 1% w/v 3-[3-cholamidopropyl)dimethylammonio]-1-propanesulfonate) (CHAPS), 5 mM ethylenediamine tetraacetic acid (EDTA), and 50 mM tris(hydroxymethyl)aminomethane (Tris) and 100 mM NaCl (pH=7.4). The suspension was vortexed for 30 seconds and incubated on ice for 45 minutes. Control cells not treated with the complexes were handled identically to the treated cells to correct for ruthenium present in the cells, and control dishes were incubated with the complex in the absence of cells to correct for non-specific adsorption of ruthenium to the plastic. If needed, samples were stored in −80° C. until analysis. Ruthenium and protein content of the lysates were determined as described above.", "data": [{"smiles": "N.N.N.N.N.N.N.N.[Cl-].[Cl-].[N-3].[Ru+4].[Ru+4]", "note": "[C-2, [Ru2(μ-N)(NH3)8Cl2]Cl3]", "values": [{"measurement": "cellular uptake relative to C-1", "value": 10, "unit": "times"}, {"measurement": "cellular uptake relative to C-3", "value": "over twice as effectively as C-3"}]}]}
